Experiments:
Assay in all cases: KINOMEscan competition binding
Details in all cases: compound 10.0 µM
BMPR2 (human) = BMPR2 (human) (UniProt Q13873)
CDK13 (human) = CDK13 (human) (UniProt Q14004)
CHEK2 (human) = CHEK2 (human) (UniProt O96017)
CRK2 (P.falciparum) = CRK2 (P.falciparum) (UniProt P61075)
CSF1R (human) = CSF1R (human) (UniProt P07333)
CSNK1E (human) = CSNK1E (human) (UniProt P49674)
CSNK1G2 (human) = CSNK1G2 (human) (UniProt P78368)
DCLK2 (human) = DCLK2 (human) (UniProt Q8N568)
EPHB3 (human) = EPHB3 (human) (UniProt P54753)
Sequence of EPHB3 (human) (P54753 whole entry, looked up): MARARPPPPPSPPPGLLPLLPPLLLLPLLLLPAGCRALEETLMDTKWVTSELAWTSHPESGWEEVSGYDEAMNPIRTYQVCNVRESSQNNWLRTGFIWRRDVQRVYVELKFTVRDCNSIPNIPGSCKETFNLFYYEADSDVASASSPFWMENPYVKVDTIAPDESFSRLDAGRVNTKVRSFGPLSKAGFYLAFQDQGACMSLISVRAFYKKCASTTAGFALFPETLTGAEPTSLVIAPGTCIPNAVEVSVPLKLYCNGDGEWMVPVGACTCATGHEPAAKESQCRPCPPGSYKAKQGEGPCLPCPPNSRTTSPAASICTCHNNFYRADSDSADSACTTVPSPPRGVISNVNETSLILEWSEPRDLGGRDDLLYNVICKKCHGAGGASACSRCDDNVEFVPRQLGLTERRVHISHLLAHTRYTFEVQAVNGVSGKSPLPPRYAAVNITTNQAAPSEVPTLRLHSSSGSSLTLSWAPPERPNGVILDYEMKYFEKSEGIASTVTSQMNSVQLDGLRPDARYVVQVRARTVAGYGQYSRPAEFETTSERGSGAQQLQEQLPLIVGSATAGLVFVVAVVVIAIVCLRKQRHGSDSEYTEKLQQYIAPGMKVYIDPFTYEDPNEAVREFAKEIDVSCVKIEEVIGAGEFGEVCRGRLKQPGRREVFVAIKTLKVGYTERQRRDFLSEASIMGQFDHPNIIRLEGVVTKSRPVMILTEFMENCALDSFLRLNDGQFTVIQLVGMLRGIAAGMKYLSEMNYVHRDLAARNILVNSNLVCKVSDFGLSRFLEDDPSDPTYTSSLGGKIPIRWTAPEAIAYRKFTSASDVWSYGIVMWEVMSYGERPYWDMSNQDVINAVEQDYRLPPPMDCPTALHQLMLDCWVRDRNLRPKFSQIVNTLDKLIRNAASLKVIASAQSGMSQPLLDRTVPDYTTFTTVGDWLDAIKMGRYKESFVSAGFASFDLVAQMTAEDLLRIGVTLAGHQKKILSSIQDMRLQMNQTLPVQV

EPHB6 (human) = EPHB6 (human) (UniProt O15197)
ERBB3 (human) = ERBB3 (human) (UniProt P21860)
[1] = test system: FLT3 (human), P36888 [D835H]
GRK7 (human) = GRK7 (human) (UniProt Q8WTQ7)
HIPK2 (human) = HIPK2 (human) (UniProt Q9H2X6)
INSR (human) = INSR (human) (UniProt P06213)
IRAK3 (human) = IRAK3 (human) (UniProt Q9Y616)
LTK (human) = LTK (human) (UniProt P29376)
LYN (human) = LYN (human) (UniProt P07948)
Sequence of LYN (human) (P07948 whole entry, looked up): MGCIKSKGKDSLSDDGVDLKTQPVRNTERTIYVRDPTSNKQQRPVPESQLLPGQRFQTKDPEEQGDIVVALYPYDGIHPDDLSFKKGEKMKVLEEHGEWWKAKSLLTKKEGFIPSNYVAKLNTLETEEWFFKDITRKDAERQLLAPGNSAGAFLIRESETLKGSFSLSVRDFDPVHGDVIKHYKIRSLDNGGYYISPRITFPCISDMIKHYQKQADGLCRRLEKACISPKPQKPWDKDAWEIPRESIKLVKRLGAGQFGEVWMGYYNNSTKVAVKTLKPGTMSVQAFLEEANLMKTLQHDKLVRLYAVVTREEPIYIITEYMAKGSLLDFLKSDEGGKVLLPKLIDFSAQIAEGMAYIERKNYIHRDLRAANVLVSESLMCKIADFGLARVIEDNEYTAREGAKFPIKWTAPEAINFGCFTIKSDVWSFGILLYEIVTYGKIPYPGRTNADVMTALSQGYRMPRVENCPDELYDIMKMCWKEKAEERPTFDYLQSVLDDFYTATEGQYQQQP

MAP3K11 (human) = MAP3K11 (human) (UniProt Q16584)
MAP4K2 (human) = MAP4K2 (human) (UniProt Q12851)
MAPK3 (human) = MAPK3 (human) (UniProt P27361)
MAPK6 (human) = MAPK6 (human) (UniProt Q16659)
MARK2 (human) = MARK2 (human) (UniProt Q7KZI7)
Sequence of MARK2 (human) (Q7KZI7 whole entry, looked up): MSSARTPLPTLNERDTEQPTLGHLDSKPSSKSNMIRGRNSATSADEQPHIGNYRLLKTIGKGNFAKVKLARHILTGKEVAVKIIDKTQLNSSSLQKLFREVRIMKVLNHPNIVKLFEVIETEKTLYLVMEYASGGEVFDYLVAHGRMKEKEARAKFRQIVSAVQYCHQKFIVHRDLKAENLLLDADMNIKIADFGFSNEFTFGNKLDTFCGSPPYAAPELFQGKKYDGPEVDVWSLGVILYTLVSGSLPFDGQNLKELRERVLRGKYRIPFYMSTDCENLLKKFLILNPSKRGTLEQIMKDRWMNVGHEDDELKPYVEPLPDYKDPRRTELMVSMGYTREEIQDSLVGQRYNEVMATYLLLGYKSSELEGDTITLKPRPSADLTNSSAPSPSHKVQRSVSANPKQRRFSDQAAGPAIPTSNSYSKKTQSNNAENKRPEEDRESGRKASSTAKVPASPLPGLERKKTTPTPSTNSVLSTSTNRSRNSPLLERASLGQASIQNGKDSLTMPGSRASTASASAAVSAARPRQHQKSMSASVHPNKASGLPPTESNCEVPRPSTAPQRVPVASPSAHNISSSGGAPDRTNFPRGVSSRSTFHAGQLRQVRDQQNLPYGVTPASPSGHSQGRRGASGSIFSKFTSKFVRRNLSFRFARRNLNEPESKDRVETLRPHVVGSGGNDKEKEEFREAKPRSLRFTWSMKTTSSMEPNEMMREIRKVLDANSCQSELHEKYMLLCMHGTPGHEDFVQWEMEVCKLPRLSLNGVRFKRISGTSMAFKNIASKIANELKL

MAST1 (human) = MAST1 (human) (UniProt Q9Y2H9)
MET (human) = MET (human) (UniProt P08581)
[2] = test system: MET (human), P08581 [Y1235D]
NEK3 (human) = NEK3 (human) (UniProt P51956)
NEK4 (human) = NEK4 (human) (UniProt P51957)
Sequence of NEK4 (human) (P51957 whole entry, looked up): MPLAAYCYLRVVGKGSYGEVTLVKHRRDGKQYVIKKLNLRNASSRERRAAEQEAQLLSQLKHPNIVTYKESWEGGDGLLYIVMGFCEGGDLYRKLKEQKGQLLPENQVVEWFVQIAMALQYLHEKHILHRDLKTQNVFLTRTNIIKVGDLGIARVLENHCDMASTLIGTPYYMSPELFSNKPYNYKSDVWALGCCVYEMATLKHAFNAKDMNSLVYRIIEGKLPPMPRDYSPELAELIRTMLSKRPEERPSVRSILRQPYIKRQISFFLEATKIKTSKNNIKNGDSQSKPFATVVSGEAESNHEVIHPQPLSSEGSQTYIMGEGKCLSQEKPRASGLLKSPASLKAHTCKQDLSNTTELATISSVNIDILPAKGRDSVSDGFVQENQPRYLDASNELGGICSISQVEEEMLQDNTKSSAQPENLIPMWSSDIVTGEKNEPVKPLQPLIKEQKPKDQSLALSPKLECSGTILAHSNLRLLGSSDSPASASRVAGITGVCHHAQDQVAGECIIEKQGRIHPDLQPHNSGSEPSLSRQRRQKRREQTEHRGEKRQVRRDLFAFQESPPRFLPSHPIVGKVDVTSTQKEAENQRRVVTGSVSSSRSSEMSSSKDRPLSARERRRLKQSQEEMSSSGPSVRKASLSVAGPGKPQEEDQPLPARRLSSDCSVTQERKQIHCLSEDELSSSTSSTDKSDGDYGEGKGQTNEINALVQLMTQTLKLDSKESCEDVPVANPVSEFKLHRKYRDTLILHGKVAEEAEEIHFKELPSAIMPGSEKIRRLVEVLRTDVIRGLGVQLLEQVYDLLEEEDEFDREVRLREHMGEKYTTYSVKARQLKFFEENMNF

NUAK2 (human) = NUAK2 (human) (UniProt Q9H093)
Sequence of NUAK2 (human) (Q9H093 whole entry, looked up): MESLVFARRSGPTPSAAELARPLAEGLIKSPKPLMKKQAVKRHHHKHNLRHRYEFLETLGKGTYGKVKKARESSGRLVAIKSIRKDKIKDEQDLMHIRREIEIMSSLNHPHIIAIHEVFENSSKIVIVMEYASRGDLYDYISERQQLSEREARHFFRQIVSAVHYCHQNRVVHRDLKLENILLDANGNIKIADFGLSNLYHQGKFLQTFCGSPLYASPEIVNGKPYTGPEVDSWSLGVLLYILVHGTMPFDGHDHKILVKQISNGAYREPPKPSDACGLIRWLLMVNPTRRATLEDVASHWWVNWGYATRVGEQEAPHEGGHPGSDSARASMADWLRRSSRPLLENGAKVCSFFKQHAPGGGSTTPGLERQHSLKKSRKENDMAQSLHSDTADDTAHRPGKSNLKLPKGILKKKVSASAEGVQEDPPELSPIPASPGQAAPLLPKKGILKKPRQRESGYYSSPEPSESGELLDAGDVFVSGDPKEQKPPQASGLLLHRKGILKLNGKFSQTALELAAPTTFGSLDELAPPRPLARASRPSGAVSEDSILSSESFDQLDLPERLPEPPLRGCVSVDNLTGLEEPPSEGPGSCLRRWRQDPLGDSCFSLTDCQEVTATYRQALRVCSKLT

PIK3CG (human) = PIK3CG (human) (UniProt P48736)
PIM1 (human) = PIM1 (human) (UniProt P11309)
Sequence of PIM1 (human) (P11309 whole entry, looked up): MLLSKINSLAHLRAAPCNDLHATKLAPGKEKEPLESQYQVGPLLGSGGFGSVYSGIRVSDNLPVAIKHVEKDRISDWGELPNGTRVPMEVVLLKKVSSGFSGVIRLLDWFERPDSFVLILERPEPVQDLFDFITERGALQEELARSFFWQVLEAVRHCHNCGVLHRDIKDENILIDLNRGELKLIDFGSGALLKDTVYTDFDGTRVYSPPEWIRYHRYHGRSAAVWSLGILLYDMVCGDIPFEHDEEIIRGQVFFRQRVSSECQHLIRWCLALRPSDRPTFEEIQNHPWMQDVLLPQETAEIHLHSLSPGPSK

PIP5K1A (human) = PIP5K1A (human) (UniProt Q99755)
PKN1 (human) = PKN1 (human) (UniProt Q16512)
Sequence of PKN1 (human) (Q16512 whole entry, looked up): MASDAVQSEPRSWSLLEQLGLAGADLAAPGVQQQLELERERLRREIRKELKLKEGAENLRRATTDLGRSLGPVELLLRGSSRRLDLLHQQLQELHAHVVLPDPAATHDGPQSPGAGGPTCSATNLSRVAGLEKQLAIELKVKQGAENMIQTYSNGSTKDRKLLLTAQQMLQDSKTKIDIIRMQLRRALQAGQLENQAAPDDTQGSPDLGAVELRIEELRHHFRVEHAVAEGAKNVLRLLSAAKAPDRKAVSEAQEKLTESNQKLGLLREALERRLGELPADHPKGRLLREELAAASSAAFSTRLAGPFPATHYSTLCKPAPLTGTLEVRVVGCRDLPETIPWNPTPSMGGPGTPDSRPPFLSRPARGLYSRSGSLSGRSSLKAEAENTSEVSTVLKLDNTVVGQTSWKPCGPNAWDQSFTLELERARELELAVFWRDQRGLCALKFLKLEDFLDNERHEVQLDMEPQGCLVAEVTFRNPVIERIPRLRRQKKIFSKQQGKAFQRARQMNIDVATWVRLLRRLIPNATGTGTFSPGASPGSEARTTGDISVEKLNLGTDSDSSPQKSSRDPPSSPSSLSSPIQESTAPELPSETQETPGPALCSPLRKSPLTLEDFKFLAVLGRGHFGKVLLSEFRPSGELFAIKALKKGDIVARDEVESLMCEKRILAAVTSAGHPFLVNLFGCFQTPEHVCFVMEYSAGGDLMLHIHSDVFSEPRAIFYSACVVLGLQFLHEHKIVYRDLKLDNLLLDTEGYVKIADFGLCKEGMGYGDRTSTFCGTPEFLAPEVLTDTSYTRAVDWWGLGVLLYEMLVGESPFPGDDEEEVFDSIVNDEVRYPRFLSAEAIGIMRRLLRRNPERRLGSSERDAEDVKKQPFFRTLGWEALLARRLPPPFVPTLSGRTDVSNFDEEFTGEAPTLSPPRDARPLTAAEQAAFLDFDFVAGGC

PRKCI (human) = PRKCI (human) (UniProt P41743)
PRPF4B (human) = PRPF4B (human) (UniProt Q13523)
RAF1 (human) = RAF1 (human) (UniProt P04049)
RIOK1 (human) = RIOK1 (human) (UniProt Q9BRS2)
SNRK (human) = SNRK (human) (UniProt Q9NRH2)
STK32A (human) = STK32A (human) (UniProt Q8WU08)
TAOK2 (human) = TAOK2 (human) (UniProt Q9UL54)

## COc1cc(C(=O)N2CCC(N3CCN(C)CC3)CC2)ccc1Nc1ncc2c(n1)N(C)c1ccccc1C(=O)N2C
BMPR2 (human)
  kinase still bound, per cent of control: 87%
CDK13 (human)
  kinase still bound, per cent of control: 100%
CHEK2 (human)
  kinase still bound, per cent of control: 66%
CRK2 (P.falciparum)
  kinase still bound, per cent of control: 100%
CSF1R (human)
  kinase still bound, per cent of control: 98%
CSNK1E (human)
  kinase still bound, per cent of control: 95%
CSNK1G2 (human)
  kinase still bound, per cent of control: 100%
DCLK2 (human)
  kinase still bound, per cent of control: 0.45%
EPHB3 (human)
  kinase still bound, per cent of control: 100%
EPHB6 (human)
  kinase still bound, per cent of control: 31%
ERBB3 (human)
  kinase still bound, per cent of control: 100%
[1]
  kinase still bound, per cent of control: 100%
GRK7 (human)
  kinase still bound, per cent of control: 100%
HIPK2 (human)
  kinase still bound, per cent of control: 88%
INSR (human)
  kinase still bound, per cent of control: 84%
IRAK3 (human)
  kinase still bound, per cent of control: 100%
LTK (human)
  kinase still bound, per cent of control: 32%
LYN (human)
  kinase still bound, per cent of control: 100%
MAP3K11 (human)
  kinase still bound, per cent of control: 100%
MAP4K2 (human)
  kinase still bound, per cent of control: 100%
MAPK3 (human)
  kinase still bound, per cent of control: 100%
MAPK6 (human)
  kinase still bound, per cent of control: 100%
MARK2 (human)
  kinase still bound, per cent of control: 100%
MAST1 (human)
  kinase still bound, per cent of control: 100%
MET (human)
  kinase still bound, per cent of control: 100%
[2]
  kinase still bound, per cent of control: 100%
NEK3 (human)
  kinase still bound, per cent of control: 100%
NEK4 (human)
  kinase still bound, per cent of control: 95%
NUAK2 (human)
  kinase still bound, per cent of control: 47%
PIK3CG (human)
  kinase still bound, per cent of control: 15%
PIM1 (human)
  kinase still bound, per cent of control: 100%
PIP5K1A (human)
  kinase still bound, per cent of control: 90%
PKN1 (human)
  kinase still bound, per cent of control: 100%
PRKCI (human)
  kinase still bound, per cent of control: 100%
PRPF4B (human)
  kinase still bound, per cent of control: 93%
RAF1 (human)
  kinase still bound, per cent of control: 100%
RIOK1 (human)
  kinase still bound, per cent of control: 100%
SNRK (human)
  kinase still bound, per cent of control: 94%
STK32A (human)
  kinase still bound, per cent of control: 100%
TAOK2 (human)
  kinase still bound, per cent of control: 65%
